{"source": "patent US20170252373A1", "about": "“COMBINATION THERAPY FOR THE TREATMENT OF HAIR LOSS” (priority 2016, published 2017)", "origin": "cited, not measured here", "test_system": "male-pattern hair loss", "details": "within three months of starting treatment; also at 24 and 48 months with continued use", "data": [{"smiles": "CC(C)(C)NC(=O)[C@H]1CC[C@H]2[C@@H]3CC[C@H]4NC(=O)C=C[C@]4(C)[C@H]3CC[C@]12C", "note": "[finasteride]", "values": [{"measurement": "hair on the scalp", "result": "Increased hair on the scalp"}]}]}
